# In patent US9113629B2, “4-amino-6-(4-substituted-phenyl)-picolinates and 6-amino-2-(4-substituted-phenyl)-pyrimidine-4-carboxylates and their use as herbicides” (DOW AGROSCIENCES LLC, priority 2013, dated 2015):
# Where two headings read alike, the source gives them in different places.
# What was measured:
# [1] = system: Key Grass and Sedge Weeds as well as Grass Crops; test: Post-emergent Test II herbicidal activity (Table 6); type: in vivo; conditions: post-emergence, 336 h; for pest or weed control at 70 g/ha: application rate 70 g ai/ha; for pest or weed control at 140 g/ha: application rate 140 g ai/ha
# In short: (§1)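 Greenhouse-grown plants at first or second true leaf stage were sprayed post-emergence with compound in acetone/DMSO-based aqueous spray containing crop oil concentrate and surfactant, at 187 L/ha, highest rate plus ½× to 1/16× dilutions. After 14 d, injury was scored visually versus untreated plants, 0 (none) to 100% (complete kill).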
# [2] = system: Key Broadleaf Weed and Crop Species; test: Post-emergent Test II herbicidal activity (Table 5); type: in vivo; conditions: post-emergence, 336 h, post-emergent, 14 days after application; for pest or weed control at 70 g/ha: application rate 70 g ai/ha; for pest or weed control at 140 g/ha: application rate 140 g ai/ha
# In short: as §1
# [3] = CYPES: yellow nutsedge (Cyperus esculentus), read-out: Visual Growth Reduction (%) 14 Days After Application, CYPES
# [4] = DIGSA: crabgrass (Digitaria sanguinalis), read-out: Visual Growth Reduction (%) 14 Days After Application, DIGSA
# [5] = ECHCG: barnyardgrass (Echinochloa crus-galli), read-out: Visual Growth Reduction (%) 14 Days After Application, ECHCG
# [6] = ORYSA: rice (Oryza sativa), read-out: Visual Growth Reduction (%) 14 Days After Application, ORYSA
# [7] = SETFA: giant foxtail (Setaria faberi), read-out: Visual Growth Reduction (%) 14 Days After Application, SETFA
# [8] = SORVU: grain sorghum (Sorghum vulgare), read-out: Visual Growth Reduction (%) 14 Days After Application, SORVU
# [9] = TRZSS (wheat, Triticum aestivum), read-out: Visual Growth Reduction (%) 14 Days After Application, TRZSS
# [10] = ZEAMX: maize, corn (Zea mays), read-out: Visual Growth Reduction (%) 14 Days After Application, ZEAMX
# [11] = ABUTH: velvetleaf (Abutilon theophrasti), read-out: Visual Growth Reduction (%) 14 Days After Application, ABUTH
# [12] = AMARE: redroot pigweed (Amaranthus retroflexus), read-out: Visual Growth Reduction (%) 14 Days After Application, AMARE
# [13] = BRSNN: oilseed-rape, canola (Brassica napus), read-out: Visual Growth Reduction (%) 14 Days After Application, BRSNN
# [14] = CHEAL: lambsquarters (Chenopodium album), read-out: Visual Growth Reduction (%) 14 Days After Application, CHEAL
# [15] = EPHHL: wild poinsettia (Euphorbia heterophylla), read-out: Visual Growth Reduction (%) 14 Days After Application, EPHHL
# [16] = HELAN: sunflower (Helianthus annuus), read-out: Visual Growth Reduction (%) 14 Days After Application, HELAN
# [17] = VIOTR: wild pansy (Viola tricolor), read-out: Visual Growth Reduction (%) 14 Days After Application, VIOTR
smiles,measurement,setting,value
COc1c(N)nc(-c2cc(F)c(C)cc2F)nc1C(=O)O [Compound 201],melting point,,135.9 to 137.7 °C
same,pest or weed control at 70 g/ha,[1]; [3],0 to 29%
same,pest or weed control at 140 g/ha,[1]; [3],0 to 29%
same,pest or weed control at 70 g/ha,[1]; [4],0 to 29%
same,pest or weed control at 140 g/ha,[1]; [4],0 to 29%
same,pest or weed control at 70 g/ha,[1]; [5],60 to 74%
same,pest or weed control at 140 g/ha,[1]; [5],45 to 59%
same,pest or weed control at 70 g/ha,[1]; [6],0 to 29%
same,pest or weed control at 140 g/ha,[1]; [6],0 to 29%
same,pest or weed control at 70 g/ha,[1]; [7],0 to 29%
same,pest or weed control at 140 g/ha,[1]; [7],30 to 44%
same,pest or weed control at 70 g/ha,[1]; [8],0 to 29%
same,pest or weed control at 140 g/ha,[1]; [8],45 to 59%
same,pest or weed control at 70 g/ha,[1]; [9],0 to 29%
same,pest or weed control at 140 g/ha,[1]; [9],0 to 29%
same,pest or weed control at 70 g/ha,[1]; [10],0 to 29%
same,pest or weed control at 140 g/ha,[1]; [10],0 to 29%
same,pest or weed control at 70 g/ha,[2]; [11],30 to 44%
same,pest or weed control at 140 g/ha,[2]; [11],60 to 74%
same,pest or weed control at 70 g/ha,[2]; [12],30 to 44%
same,pest or weed control at 140 g/ha,[2]; [12],60 to 74%
same,pest or weed control at 70 g/ha,[2]; [13],95 to 100%
same,pest or weed control at 140 g/ha,[2]; [13],95 to 100%
same,pest or weed control at 70 g/ha,[2]; [14],85 to 94%
same,pest or weed control at 140 g/ha,[2]; [14],75 to 84%
same,pest or weed control at 70 g/ha,[2]; [15],45 to 59%
same,pest or weed control at 140 g/ha,[2]; [15],85 to 94%
same,pest or weed control at 70 g/ha,[2]; [16],60 to 74%
same,pest or weed control at 140 g/ha,[2]; [16],75 to 84%
same,pest or weed control at 70 g/ha,[2]; [17],0 to 29%
same,pest or weed control at 140 g/ha,[2]; [17],0 to 29%
